In PubChem BioAssay (NCI):
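How tested: cells in 96-well plates exposed to compound for 48 hours at five concentrations. TGI denotes the concentration required for complete inhibition of growth.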

Tests used:
Assay in all cases: NCI-60 cell line screen, 48 h
OVCAR-4 ovarian = test system: OVCAR-4 ovarian
TK-10 renal = test system: TK-10 renal
HL-60(TB) leukemia = test system: HL-60(TB) leukemia
LOX IMVI melanoma = test system: LOX IMVI melanoma
MCF7 breast = test system: MCF7 breast
DU-145 prostate = test system: DU-145 prostate
EKVX NSCLC = test system: EKVX NSCLC
HOP-92 NSCLC = test system: HOP-92 NSCLC
IGROV1 ovarian = test system: IGROV1 ovarian
A549 NSCLC = test system: A549 NSCLC
786-0 renal = test system: 786-0 renal
SW-620 colon = test system: SW-620 colon
MOLT-4 leukemia = test system: MOLT-4 leukemia
SK-MEL-2 melanoma = test system: SK-MEL-2 melanoma
PC-3 prostate = test system: PC-3 prostate
SK-MEL-5 melanoma = test system: SK-MEL-5 melanoma
SR leukemia = test system: SR leukemia
SF-539 CNS = test system: SF-539 CNS
BT-549 breast = test system: BT-549 breast
MALME-3M melanoma = test system: MALME-3M melanoma
UACC-257 melanoma = test system: UACC-257 melanoma
ACHN renal = test system: ACHN renal
COLO 205 colon = test system: COLO 205 colon
SF-295 CNS = test system: SF-295 CNS
HCT-116 colon = test system: HCT-116 colon
HOP-62 NSCLC = test system: HOP-62 NSCLC
NCI-H226 lung = test system: NCI-H226 lung
M14 melanoma = test system: M14 melanoma
T-47D breast = test system: T-47D breast
NCI/ADR-RES ovarian = test system: NCI/ADR-RES ovarian
SF-268 CNS = test system: SF-268 CNS
UACC-62 melanoma = test system: UACC-62 melanoma
OVCAR-8 ovarian = test system: OVCAR-8 ovarian
HT29 colon = test system: HT29 colon
RPMI-8226 leukemia = test system: RPMI-8226 leukemia
HCC-2998 colon = test system: HCC-2998 colon
NCI-H460 lung = test system: NCI-H460 lung
SNB-75 CNS = test system: SNB-75 CNS
A498 renal = test system: A498 renal
SNB-19 CNS = test system: SNB-19 CNS
OVCAR-3 ovarian = test system: OVCAR-3 ovarian
MDA-MB-435 = test system: MDA-MB-435
HCT-15 colon = test system: HCT-15 colon
MDA-MB-231 breast = test system: MDA-MB-231 breast
UO-31 renal = test system: UO-31 renal
SK-OV-3 ovarian = test system: SK-OV-3 ovarian
OVCAR-5 ovarian = test system: OVCAR-5 ovarian
CAKI-1 renal = test system: CAKI-1 renal
NCI-H522 lung = test system: NCI-H522 lung
K-562 leukemia = test system: K-562 leukemia
NCI-H23 lung = test system: NCI-H23 lung
RXF 393 renal = test system: RXF 393 renal
KM12 colon = test system: KM12 colon
MDA-N = test system: MDA-N
SN12C renal = test system: SN12C renal
U251 CNS = test system: U251 CNS
SK-MEL-28 melanoma = test system: SK-MEL-28 melanoma
CCRF-CEM leukemia = test system: CCRF-CEM leukemia

Measured: TGI

O=C(/C=C/c1ccc(OCc2ccccc2)c(OCc2ccccc2)c1)OCc1ccccc1
not listed: CCRF-CEM leukemia
> 100 µM: all other assays above

COc1ccc(-c2nc3cc(F)ccc3s2)cc1O
64 µM: CAKI-1 renal
66.1 µM: HL-60(TB) leukemia
47.7 µM: SR leukemia
79.3 µM: LOX IMVI melanoma
55.1 µM: 786-0 renal
70 µM: TK-10 renal
66.3 µM: A498 renal
94.4 µM: COLO 205 colon
42.1 µM: NCI-H522 lung
77.1 µM: RPMI-8226 leukemia
59 µM: SK-MEL-5 melanoma
61.8 µM: UACC-257 melanoma
78 µM: SK-MEL-2 melanoma
12.7 µM: HCC-2998 colon
81.3 µM: IGROV1 ovarian
54.1 µM: BT-549 breast
60.8 µM: EKVX NSCLC
49 µM: SF-295 CNS
46.9 µM: T-47D breast
not listed: HOP-92 NSCLC | HOP-62 NSCLC | SNB-75 CNS
> 100 µM: all other assays above
